Experiments:
[1] = system: Mouse melanoma cells (MM-4 cell line); assay: Cytotoxic effect of E2+85Rbe and antitumor drug added 24 hours apart; type: cell-based
Experimental: The effectiveness of the method of the invention that comprises administering antitumor drugs and ^85Rb-enriched rubidium salt of N-benzoyl-N-(4-toluenesulfonyl)-o-phenylenediamine of formula I was measured in the experiment. […] Both orders were tested: AD administered first (Scheme 2, below), and AD administered second (Scheme 1, below).
Materials and Methods: Mouse melanoma cells (MM-4 cell line) were seeded into 96-well plates (TPP, Italy), in DMEM (Biowest, France) supplemented with 10% newborn calf serum (Biowest, France) and […] gentamicin (Sigma, USA) at a seeding density of 5×10^4 cells/ml. The cells were then cultured in an incubator with a humidified atmosphere of 5% CO2 in air at 37° C. The experiment was carried out in accordance with the three schemes given below. The experiment was started 24 hours after the cells were seeded. For this purpose, the agents used in the method were introduced into the appropriate wells. The following schemes of introduction were used for the study:
Scheme 1) The ^85Rb-enriched rubidium salt of N-benzoyl-N′-(4-toluenesulfonyl)-o-phenylenediamine of formula I was introduced at the first stage in the following amounts: 2.0 μg/ml, 1.0 μg/ml, 0, 5 μg/ml, and one antitumor drug was introduced at the second stage (after 24 hours).
Scheme 2) An AD was introduced at the first stage at doses as indicated in Scheme 1 above and ^85Rb-enriched rubidium salt of N-benzoyl-N′-(4-toluenesulfonyl)-o-phenylenediamine of formula I was introduced at the second stage (after 24 hours) at the following doses: 2.0 μg/ml, 1.0 μg/ml, 0.5 μg/ml.
After all the agents were added into the wells, the cells were incubated at 37° C. and 5% CO2 for another 72 hours (96 hours in total after the cells were seeded).
As in example 2, the cytotoxic effect was determined as the percentage of the cell number with respect to the control after their treatment in accordance with the claimed method. The effects of the drugs were evaluated visually, which allowed us to examine the morphological pattern of the cytotoxic action of the drugs, and by staining the cells with crystal violet, followed by OD measurement at an excitation wavelength of 540 nm using a MultiSkan microplate spectrophotometer.
The effects of the complex action of various doses of the investigated substances were evaluated using the concept of synergistic, additive and antagonistic effects of the drugs, as for Example 2, and calculating CI as described in Example 2.
Each table sets forth the % of MM-4 cells that survived in the presence of the drug doses indicated in the in vitro experiments described above, expressed as a percentage of the cells in the control wells.

[2] = system: Mouse B16 melanoma cells (MM-4 cell line); assay: Cytotoxic/cytostatic activity of E2+85Rbe and antitumor drug added simultaneously; type: cell-based
Experimental: The effects of the complex action of various doses of the investigated substances were evaluated using the concept of synergistic, additive and antagonistic effects of the drugs. The mathematics are detailed below. […] The effects were calculated using the Chou-Talalay method according to the following equation (“CI” refers to the “combination index”) (see T.-C. […] Where both the ^85Rb-enriched rubidium salt (referred to as “E2+^85Rbe”) and an AD were administered, they were administered simultaneously.

In the case of `CN(C)/N=N/c1[nH]cnc1C(N)=O` [dacarbazine], the “% surviving MM-4 cells” value ([1]; dacarbazine 2.5 μg/ml alone, first stage) is reported as 21 ± 2.4%, the “% surviving MM-4 cells” value ([1]; dacarbazine 2.5 μg/ml alone, second stage) is reported as 40.7 ± 0.7% and the “% surviving MM-4 cells” value ([1]; dacarbazine 5 μg/ml alone, first stage) is reported as 18.1 ± 0.2%. For the same molecule, the “% surviving MM-4 cells” value ([1]; dacarbazine 5 μg/ml alone, second stage) was 30 ± 2.4%, the “% surviving MM-4 cells” value ([1]; dacarbazine 10 μg/ml alone, first stage) was 11.6 ± 3% and the “% surviving MM-4 cells” value ([1]; dacarbazine 10 μg/ml alone, second stage) was 19 ± 4%. For the same molecule, the “% surviving MM-4 cells” value ([1]; dacarbazine 20 μg/ml alone, first stage) was 7.8 ± 0.5%, the “% surviving MM-4 cells” value ([1]; dacarbazine 20 μg/ml alone, second stage) was 12.9 ± 2.9% and the “% surviving MM-4 cells” value ([1]; dacarbazine 40 μg/ml alone, first stage) was 3.5 ± 0.7%. For the same molecule, the “% surviving MM-4 cells” value ([1]; dacarbazine 40 μg/ml alone, second stage) was 8.4 ± 1.2%, the “% surviving MM-4 cells” value ([2]; dacarbazine 2.5 μg/ml alone) was 21 ± 2.4% and the “% surviving MM-4 cells” value ([2]; dacarbazine 5 μg/ml alone) was 18.1 ± 0.2%. For the same molecule, the “% surviving MM-4 cells” value ([2]; dacarbazine 10 μg/ml alone) was 11.6 ± 3%, the “% surviving MM-4 cells” value ([2]; dacarbazine 20 μg/ml alone) was 7.8 ± 0.5% and the “% surviving MM-4 cells” value ([2]; dacarbazine 40 μg/ml alone) was 3.5 ± 0.7%.

`COc1cccc2c1C(=O)c1c(O)c3c(c(O)c1C2=O)C[C@@](O)(C(=O)CO)C[C@@H]3O[C@H]1C[C@H](N)[C@H](O)[C@H](C)O1` [doxorubicin] was tested, and the “% surviving MM-4 cells” value ([1]; doxorubicin 150 ng/ml alone, first stage) was 14.4 ± 1.1%, the “% surviving MM-4 cells” value ([1]; doxorubicin 150 ng/ml alone, second stage) was 35.5 ± 0.8% and the “% surviving MM-4 cells” value ([1]; doxorubicin 175 ng/ml alone, first stage) was 13 ± 0.1%. The “% surviving MM-4 cells” value ([1]; doxorubicin 200 ng/ml alone, first stage) was 9.1 ± 1.1%, the “% surviving MM-4 cells” value ([1]; doxorubicin 200 ng/ml alone, second stage) was 24.8 ± 5.5% and the “% surviving MM-4 cells” value ([1]; doxorubicin 300 ng/ml alone, first stage) was 3.1 ± 0.1%. The “% surviving MM-4 cells” value ([1]; doxorubicin 300 ng/ml alone, second stage) was 12.2 ± 0.5%, the “% surviving MM-4 cells” value ([1]; doxorubicin 500 ng/ml alone, first stage) was 0% and the “% surviving MM-4 cells” value ([1]; doxorubicin 500 ng/ml alone, second stage) was 5.3 ± 0.9%. For the same molecule, the “% surviving MM-4 cells” value ([2]; doxorubicin 150 ng/ml alone) was 14.4 ± 1.1%, the “% surviving MM-4 cells” value ([2]; doxorubicin 175 ng/ml alone) was 13 ± 0.1% and the “% surviving MM-4 cells” value ([2]; doxorubicin 200 ng/ml alone) was 9.1 ± 1.1%. The “% surviving MM-4 cells” value ([2]; doxorubicin 300 ng/ml alone) was 3.1 ± 0.1% and the “% surviving MM-4 cells” value ([2]; doxorubicin 500 ng/ml alone) was 0%.

`CC(=O)O[C@H]1C(=O)[C@@]2(C)[C@H]([C@H](OC(=O)c3ccccc3)[C@]3(O)C[C@H](OC(=O)[C@H](O)[C@@H](NC(=O)c4ccccc4)c4ccccc4)C(C)=C1C3(C)C)[C@]1(OC(C)=O)CO[C@@H]1C[C@@H]2O` [paclitaxel] was tested, and the “% surviving MM-4 cells” value ([1]; paclitaxel 3 ng/ml alone, first stage) was 80 ± 2.3%, the “% surviving MM-4 cells” value ([1]; paclitaxel 3 ng/ml alone, second stage) was 87.7 ± 6.7% and the “% surviving MM-4 cells” value ([1]; paclitaxel 7.5 ng/ml alone, first stage) was 33.4 ± 1.4%. The “% surviving MM-4 cells” value ([1]; paclitaxel 7.5 ng/ml alone, second stage) was 49 ± 1%, the “% surviving MM-4 cells” value ([1]; paclitaxel 15 ng/ml alone, second stage) was 37 ± 4.5% and the “% surviving MM-4 cells” value ([1]; paclitaxel 30 ng/ml alone, first stage) was 7 ± 0.8%. For the same molecule, the “% surviving MM-4 cells” value ([1]; paclitaxel 30 ng/ml alone, second stage) was 29.2 ± 4.4%, the “% surviving MM-4 cells” value ([1]; paclitaxel 3 μg/ml alone, first stage) was 1.9 ± 0.2% and the “% surviving MM-4 cells” value ([2]; paclitaxel 3 ng/ml alone) was 80 ± 2.3%. The “% surviving MM-4 cells” value ([2]; paclitaxel 7.5 ng/ml alone) was 33.4 ± 1.4%, the “% surviving MM-4 cells” value ([2]; paclitaxel 30 ng/ml alone) was 7 ± 0.8% and the “% surviving MM-4 cells” value ([2]; paclitaxel 3 μg/ml alone) was 1.9 ± 0.2%.

For `CCC1=C[C@@H]2CN(C1)Cc1c([nH]c3ccccc13)[C@@](C(=O)OC)(c1cc3c(cc1OC)N(C)[C@H]1[C@@](O)(C(=O)OC)[C@H](OC(C)=O)[C@]4(CC)C=CCN5CC[C@]31[C@@H]54)C2` [vinorelbine], the “% surviving MM-4 cells” value ([1]; vinorelbine 1 ng/ml alone, first stage) was 10 ± 0.1%, the “% surviving MM-4 cells” value ([1]; vinorelbine 1 ng/ml alone, second stage) was 26 ± 2.5% and the “% surviving MM-4 cells” value ([1]; vinorelbine 5 ng/ml alone, first stage) was 9.5 ± 0.5%. For the same molecule, the “% surviving MM-4 cells” value ([1]; vinorelbine 5 ng/ml alone, second stage) was 17.9 ± 0.9%, the “% surviving MM-4 cells” value ([1]; vinorelbine 25 ng/ml alone, first stage) was 2 ± 0.8% and the “% surviving MM-4 cells” value ([1]; vinorelbine 25 ng/ml alone, second stage) was 7.9 ± 0.5%. The “% surviving MM-4 cells” value ([1]; vinorelbine 50 ng/ml alone, first stage) was 2 ± 1%, the “% surviving MM-4 cells” value ([1]; vinorelbine 50 ng/ml alone, second stage) was 6.4 ± 0.4% and the “% surviving MM-4 cells” value ([1]; vinorelbine 200 ng/ml alone, first stage) was 1%. The “% surviving MM-4 cells” value ([1]; vinorelbine 200 ng/ml alone, second stage) was 5.6 ± 0.6%, the “% surviving MM-4 cells” value ([2]; vinorelbine 1 ng/ml alone) was 10 ± 0.1% and the “% surviving MM-4 cells” value ([2]; vinorelbine 5 ng/ml alone) was 9.5 ± 0.5%. The “% surviving MM-4 cells” value ([2]; vinorelbine 25 ng/ml alone) was 2 ± 0.8%, the “% surviving MM-4 cells” value ([2]; vinorelbine 50 ng/ml alone) was 2 ± 1% and the “% surviving MM-4 cells” value ([2]; vinorelbine 200 ng/ml alone) was 1%.
